According to paper doi:10.1101/2022.01.05.475095v1 (biorxiv, 2022):

What was measured:
[1] = target: T1, SARS-CoV-2 PLpro (Severe acute respiratory syndrome coronavirus 2, UniProt P0DTD1); experiment: biochemical; conditions: read-out: PLpro % inhibition at 10 µM
[2] = target: T1, SARS-CoV-2 PLpro; experiment: fluorogenic Z-RLRGG-AMC cleavage assay; assay type: biochemical; conditions: read-out: % inhibition at 10 μM

SMILES | inhibition at 10 µM [1] | inhibition at 10 µM [2]
CC1(C)OC2=C(C(=O)C(=O)c3ccccc32)C1n1cc(-c2ccccc2)nn1 (stereo not shown) [compound 159] | 100 ± 1% | 
CC1(C)OC2=C(C(=O)C(=O)c3ccccc32)C1n1cc(CNC2=CC(=O)c3ccccc3C2=O)nn1 (stereo not shown) [compound 189] | 100% | 
CC1(C)OC2=C(C(=O)C(=O)c3ccccc32)C1n1cc(CNC2=C(Br)C(=O)c3ccccc3C2=O)nn1 (stereo not shown) [compound 191] | 93 ± 0.7% | 
Cc1ccc(S(=O)(=O)n2cc(CN(C3=CC(=O)c4ccccc4C3=O)c3ccc(Br)cc3)nn2)cc1 [compound 314, 314] |  | 55 ± 7%
CC(=O)c1ccc(N(Cc2cn(S(=O)(=O)c3ccc(C)cc3)nn2)C2=CC(=O)c3ccccc3C2=O)cc1 [compound 318] | 9 ± 5% | 
Cc1ccc(S(=O)(=O)n2cc(CNC3=CC(=O)c4ccccc4C3=O)nn2)cc1 [compound 319, 319] |  | 69 ± 3%
Cc1ccc(S(=O)(=O)n2cc(CNC3=C(Cl)C(=O)c4ccccc4C3=O)nn2)cc1 [compound 320, 320] | 31 ± 6% | 
Cc1ccc(S(=O)(=O)n2cc(CNC3=C(Br)C(=O)c4ccccc4C3=O)nn2)cc1 [compound 321, 321] | 17 ± 0.2% | 
O=C1C(Sc2ccccc2)=C(Sc2ccccc2)C(=O)c2ccccc21 [compound 379] | 0% | 
O=C1C(Sc2ccc(Br)cc2)=C(Sc2ccc(Br)cc2)C(=O)c2ccccc21 [compound 380, 380] | 12 ± 6% | 
COc1ccc(SC2=C(Sc3ccc(OC)cc3)C(=O)c3ccccc3C2=O)cc1 [compound 382] | 0% | 
CC(=O)NC1=CC(=O)c2cccc(O)c2C1=O [compound 414, 414] | 38 ± 2% | 
CC(=O)NC1=CC(=O)c2c(cccc2[N+](=O)[O-])C1=O [compound 415, 415] |  | 63 ± 9%
Cc1ccc(S(=O)(=O)c2cccc3c2C(=O)c2ccccc2C3=O)cc1 [compound 477, 477] | 0% | 
CC1(C)OC2=C(CC1Br)C(=O)C(=NNc1ccccc1)c1ccccc12 (stereo not shown) [compound 666, 666] | 0% | 
CC1(C)CC2=C(O1)c1ccccc1C(=NNc1ccccc1)C2=O [compound 673, 673] | 4 ± 4% | 
